# Patent publication US10561591B2, “Hair care regimen using compositions comprising moisture control materials” (The Procter & Gamble Company, priority 2015, dated 2020)
# Test: Dynamic Vapor Sorption (DVS) measurement: % water reduction of treated hair versus control
# Details: not given
# Description: The % water reduction is calculated as follows: […]
# Leave-on Treatment Formulation: […]
row,Compound,"% water reduction in regimen, in words"
1,O=CC(=O)O [glyoxylic acid],further increase % water reduction

# Test: Expert rating of hair switches for frizz, clean feel and greasy feel (5 point scale) after high humidity
# Details: 1% in ethanol/water leave-on
# Description: (§1) Additional leave-on treatment compositions are prepared (Tables 1 and 2) according to the procedure described above, which are used to treat hair switches using the procedure described above (amount of 0.10 g of composition per g of hair). […] Then, ten experts are asked to rate each hair switch in terms of frizz, clean feel, and greasy feel, based on a 5 point scale, 5 being the highest and 1 being the lowest rating.
# Acceptable values are: • For frizz, less than 2 (lower number corresponds to less frizz); • For no greasy feel less than 3, (lower number corresponds to less greasy feel), and • For clean feel greater than 3 (higher number corresponds to cleaner feel).
# as §1, with “(Tables 6” for “(Tables 1”, “and 7)” for “and 2)”, “rating. Acceptable values are: • For frizz, less than 2 (lower number corresponds to less frizz); • For no greasy feel less than 3, (lower number corresponds to less greasy feel), and • For clean feel greater than 3 (higher number corresponds to cleaner feel).” for “rating.”
row,Compound,"hair switch rating (frizz, clean feel, greasy feel), in words"
1,"O=C(O)c1ccc(O)cc1O [2,4-Dihydroxybenzoic acid]",provide fizz protection with clean feel and without greasy feel negative
2,CCCCCCCCC(CO)CCCCCC (stereo not drawn) [2-Hexyl-1-decanol],provide frizz protection with clean feel and without greasy feel negative
3,O=C(OCCO)c1ccccc1O [2-Hydroxyethyl salicylate],provide frizz protection with clean feel and without greasy feel negative
4,O=S(=O)(O)c1ccc(O)cc1 [4-Hydroxybenzenesulphonic acid],provide fizz protection with clean feel and without greasy feel negative
5,O=C(O)c1cc(Cl)ccc1O [5-Chlorosalicylic acid],provide fizz protection with clean feel and without greasy feel negative
6,CC(C)CCCCCCCCCCCCCCCOC(=O)CCCCCCCCCCCCCCC(C)C [Isostearyl isostearate],provide frizz protection with clean feel and without greasy feel negative
7,O=C(O)c1ccccc1O [Salicylic acid],provide fizz protection with clean feel and without greasy feel negative

# Test: Penetration amount of moisture control material inside hair (extraction with 0.1% TFA in methanol, HPLC)
# Details: 2% 2-hydroxyethyl urea versus composition without (example III and IV)
# Description: Each hair tress is extracted 3 times with 0.1% TFA (Trifluoroacetic acid) in methanol and the individual extracts are analyzed separately using HPLC method.
row,Compound,increase of penetration of salicylic acid inside hair by 2-hydroxyethyl urea [%]
1,O=C(O)c1ccccc1O [Salicylic acid],14
